Data published in ChEMBL document CHEMBL5647694, “Novel orally bioavailable EZH1/2 dual inhibitors with greater antitumor efficacy than an EZH2 selective inhibitor” (Cancer Sci, 2017).

Assays:
[1] = AUC (0 to 24 hrs) in BALB/c mouse at 6.3 mg/kg administered as single dose; type: ADME, organism-based; conditions: in vivo, route po
[2] = target: Tyrosine-protein kinase Tec (Homo sapiens) (UniProt P42680); assay: Inhibition of N-terminal GST-tagged human TEC catalytic domain (359 to 631 residues) expressed in baculovirus-infected Sf21 cells using Srctide as substrate at 1 uM in presence of ATP by Mobility shift assay
Chain of Tyrosine-protein kinase Tec (Homo sapiens) (P42680 whole entry, the tested form may be a part): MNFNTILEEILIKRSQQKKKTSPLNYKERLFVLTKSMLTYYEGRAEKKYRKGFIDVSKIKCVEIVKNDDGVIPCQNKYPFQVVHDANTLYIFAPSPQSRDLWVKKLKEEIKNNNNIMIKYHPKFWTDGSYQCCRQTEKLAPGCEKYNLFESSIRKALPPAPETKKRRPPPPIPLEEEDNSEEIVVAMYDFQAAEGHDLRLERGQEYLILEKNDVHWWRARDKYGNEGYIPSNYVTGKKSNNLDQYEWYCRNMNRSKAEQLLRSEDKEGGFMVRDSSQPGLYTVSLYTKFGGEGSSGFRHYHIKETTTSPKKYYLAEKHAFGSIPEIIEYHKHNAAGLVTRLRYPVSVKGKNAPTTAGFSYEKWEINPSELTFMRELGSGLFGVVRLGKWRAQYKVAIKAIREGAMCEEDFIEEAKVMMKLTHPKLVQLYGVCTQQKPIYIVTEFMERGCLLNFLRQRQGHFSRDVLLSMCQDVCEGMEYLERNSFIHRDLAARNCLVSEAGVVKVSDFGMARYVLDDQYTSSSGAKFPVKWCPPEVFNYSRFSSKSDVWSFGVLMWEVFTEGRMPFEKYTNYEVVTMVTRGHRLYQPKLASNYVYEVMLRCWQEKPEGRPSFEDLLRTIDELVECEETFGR

[3] = Toxicity in Crl:CD Sprague-Dawley rat assessed as red blood cell count in blood at 100 mg/kg, po administered daily for 14 days (reference value: 6.71+/-0.386 10^6/uL); type: organism-based; conditions: in vivo, 336 h, time 14 day
[4] = Toxicity in Crl:CD Sprague-Dawley rat assessed as hematocrit level in blood at 100 mg/kg, po administered daily for 14 days (reference value: 41.2 +/-[…]); type: organism-based; conditions: in vivo, 336 h, time 14 day
[5] = Toxicity in Crl:CD Sprague-Dawley rat assessed as white blood cell count in blood at 100 mg/kg, po administered daily for 14 days (reference value: 9.55+/-1.72 10^3/uL); type: organism-based; conditions: in vivo, 336 h, time 14 day
[6] = Toxicity in Crl:CD Sprague-Dawley rat assessed as basophil count in blood at 100 mg/kg, po administered daily for 14 days (reference value: 0.023+/-0.018 10^3/uL); type: organism-based; conditions: in vivo, 336 h, time 14 day
[7] = Toxicity in Crl:CD Sprague-Dawley rat assessed as aspartate aminotransferase level in blood at 100 mg/kg, po administered daily for 14 days (reference value: 72+/-5.03 U/L); type: organism-based; conditions: in vivo, 336 h, time 14 day
[8] = Toxicity in Crl:CD Sprague-Dawley rat assessed as alanine aminotransferase level in blood at 100 mg/kg, po administered daily for 14 days (reference value: 35.5+/-1.91 U/L); type: organism-based; conditions: in vivo, 336 h, time 14 day
[9] = Toxicity in Crl:CD Sprague-Dawley rat assessed as […] dehydrogenase level in blood at 100 mg/kg, po administered daily for 14 days (reference value: 103 +/-16.1 U/L); type: organism-based; conditions: in vivo, 336 h, time 14 day
[10] = Toxicity in Crl:CD Sprague-Dawley rat assessed as glucose level in blood at 100 mg/kg, po administered daily for 14 days (reference value: 193 +/-[…]); type: organism-based; conditions: in vivo, 336 h, time 14 day
[11] = Toxicity in Crl:CD Sprague-Dawley rat assessed as potassium level in blood at 100 mg/kg, po administered daily for 14 days (reference value: 4.18+/-0.189 mEq/L); type: organism-based; conditions: in vivo, 336 h, time 14 day
CEM/C2 = assay: Antitumor activity against human CEM/C2 cells assessed as cell growth inhibition treated for 10 to 15 days; type: functional; conditions: time 10-15 day
MOLT-4 = assay: Antitumor activity against human MOLT-4 cells assessed as cell growth inhibition treated for 10 to 15 days; type: functional; conditions: time 10-15 day
BT-20 = assay: Antitumor activity against human BT-20 cells assessed as cell growth inhibition treated for 10 to 15 days; type: functional; conditions: time 10-15 day
[12] = target: Histone-lysine N-methyltransferase NSD3 (Homo sapiens, UniProt Q9BZ95); assay: Inhibition of human NSD3 using Nucleosomes and [3H]SAM as substrate incubated for 30 mins to 1 hr by HotSpot kinase assay
Chain of Histone-lysine N-methyltransferase NSD3 (Q9BZ95 whole entry): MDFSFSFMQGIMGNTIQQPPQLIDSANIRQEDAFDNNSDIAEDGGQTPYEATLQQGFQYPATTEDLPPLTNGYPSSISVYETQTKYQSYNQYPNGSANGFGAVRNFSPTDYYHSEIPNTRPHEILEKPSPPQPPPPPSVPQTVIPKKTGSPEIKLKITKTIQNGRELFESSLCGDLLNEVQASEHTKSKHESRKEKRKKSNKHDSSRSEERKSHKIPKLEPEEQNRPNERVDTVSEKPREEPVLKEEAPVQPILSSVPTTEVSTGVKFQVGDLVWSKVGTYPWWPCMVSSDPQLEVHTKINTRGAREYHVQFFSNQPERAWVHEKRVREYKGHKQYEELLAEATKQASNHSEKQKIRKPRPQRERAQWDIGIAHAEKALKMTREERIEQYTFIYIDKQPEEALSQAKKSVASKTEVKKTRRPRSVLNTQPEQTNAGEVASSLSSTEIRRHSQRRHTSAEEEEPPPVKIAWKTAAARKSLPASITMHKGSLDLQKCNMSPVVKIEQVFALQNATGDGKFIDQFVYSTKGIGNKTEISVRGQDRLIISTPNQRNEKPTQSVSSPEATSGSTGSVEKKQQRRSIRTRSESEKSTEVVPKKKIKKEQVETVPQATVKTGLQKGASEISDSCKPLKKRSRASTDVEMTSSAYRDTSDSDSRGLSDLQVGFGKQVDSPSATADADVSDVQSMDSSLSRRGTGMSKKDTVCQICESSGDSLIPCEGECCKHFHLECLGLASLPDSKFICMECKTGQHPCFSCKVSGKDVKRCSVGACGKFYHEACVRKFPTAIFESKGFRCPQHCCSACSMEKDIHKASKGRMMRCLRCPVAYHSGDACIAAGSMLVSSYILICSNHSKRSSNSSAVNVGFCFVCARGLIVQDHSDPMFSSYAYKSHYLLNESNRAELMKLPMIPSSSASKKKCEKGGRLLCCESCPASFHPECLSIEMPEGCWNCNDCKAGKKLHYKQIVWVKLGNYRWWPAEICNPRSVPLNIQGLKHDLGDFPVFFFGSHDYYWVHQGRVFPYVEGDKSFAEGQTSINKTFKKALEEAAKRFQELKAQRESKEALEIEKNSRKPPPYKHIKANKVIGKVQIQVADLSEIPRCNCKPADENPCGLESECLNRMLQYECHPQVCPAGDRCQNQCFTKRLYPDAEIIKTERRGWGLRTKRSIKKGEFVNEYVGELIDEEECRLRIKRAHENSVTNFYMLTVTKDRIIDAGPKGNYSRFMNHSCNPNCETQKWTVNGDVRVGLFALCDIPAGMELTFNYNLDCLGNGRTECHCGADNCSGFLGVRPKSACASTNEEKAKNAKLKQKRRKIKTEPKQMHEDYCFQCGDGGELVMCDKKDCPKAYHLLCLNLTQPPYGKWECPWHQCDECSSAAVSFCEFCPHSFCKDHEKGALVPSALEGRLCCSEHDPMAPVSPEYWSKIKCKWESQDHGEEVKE

HL-60 = assay: Antitumor activity against human HL-60 cells assessed as cell growth inhibition treated for 10 to 15 days; type: functional; conditions: time 10-15 day
NB-4 = assay: Antitumor activity against human NB-4 cells assessed as cell growth inhibition treated for 10 to 15 days; type: functional; conditions: time 10-15 day
KCL-22 = assay: Antitumor activity against human KCL-22 cells assessed as cell growth inhibition treated for 10 to 15 days; type: functional; conditions: time 10-15 day
K562 = assay: Antitumor activity against human K562 cells assessed as cell growth inhibition treated for 10 to 15 days; type: functional; conditions: time 10-15 day
Pfeiffer = assay: Antitumor activity against human Pfeiffer cells assessed as cell growth inhibition treated for 10 to 15 days; type: functional; conditions: time 10-15 day
SU-DHL-6 = assay: Antitumor activity against human SU-DHL-6 cells assessed as cell growth inhibition treated for 10 to 15 days; type: functional; conditions: time 10-15 day
KARPAS-422 = assay: Antitumor activity against human KARPAS-422 cells assessed as cell growth inhibition treated for 10 to 15 days; type: functional; conditions: time 10-15 day
Toledo = assay: Antitumor activity against human Toledo cells assessed as cell growth inhibition treated for 10 to 15 days; type: functional; conditions: time 10-15 day
Z-138 = assay: Antitumor activity against human Z138 cells assessed as cell growth inhibition treated for 10 to 15 days; type: functional; conditions: time 10-15 day
MC-CAR = assay: Antitumor activity against human MC-CAR cells assessed as cell growth inhibition treated for 10 to 15 days; type: functional; conditions: time 10-15 day
[13] = Antitumor activity against human RDES cells assessed as cell growth inhibition treated for 10 to 15 days; type: functional; conditions: RD-ES, time 10-15 day
SK-ES1 = assay: Antitumor activity against human SK-ES1 cells assessed as cell growth inhibition treated for 10 to 15 days; type: functional; conditions: time 10-15 day
CAMA-1 = assay: Antitumor activity against human CAMA-1 cells assessed as cell growth inhibition treated for 10 to 15 days; type: functional; conditions: time 10-15 day
[14] = Antitumor activity against human HCC202 cells assessed as cell growth inhibition treated for 10 to 15 days; type: functional; conditions: time 10-15 day
MDA-MB-157 = assay: Antitumor activity against human MDA-MB-157 cells assessed as cell growth inhibition treated for 10 to 15 days; type: functional; conditions: time 10-15 day
UACC-893 = assay: Antitumor activity against human UACC-893 cells assessed as cell growth inhibition treated for 10 to 15 days; type: functional; conditions: time 10-15 day
LS180 = assay: Antitumor activity against human LS180 cells assessed as cell growth inhibition treated for 10 to 15 days; type: functional; conditions: time 10-15 day
RKO = assay: Antitumor activity against human RKO cells assessed as cell growth inhibition treated for 10 to 15 days; type: functional; conditions: time 10-15 day
ACHN = assay: Antitumor activity against human ACHN cells assessed as cell growth inhibition treated for 10 to 15 days; type: functional; conditions: time 10-15 day
SBC-5 = assay: Antitumor activity against human SBC-5 cells assessed as cell growth inhibition treated for 10 to 15 days; type: functional; conditions: time 10-15 day
[15] = Antitumor activity against human COV504 cells assessed as cell growth inhibition treated for 10 to 15 days; type: functional; conditions: time 10-15 day
Caov-3 cell line = assay: Antitumor activity against human Caov-3 cell line assessed as cell growth inhibition treated for 10 to 15 days; type: functional; conditions: time 10-15 day
[16] = Antitumor activity against human COV644 cells assessed as cell growth inhibition treated for 10 to 15 days; type: functional; conditions: time 10-15 day
[17] = Antitumor activity against human OVMANA cells assessed as cell growth inhibition treated for 10 to 15 days; type: functional; conditions: time 10-15 day
[18] = Antitumor activity against human SNU-840 cells assessed as cell growth inhibition treated for 10 to 15 days; type: functional; conditions: time 10-15 day
Hs 766 = assay: Antitumor activity against human Hs766T cells assessed as cell growth inhibition treated for 10 to 15 days; type: functional; conditions: time 10-15 day
DU-145 = assay: Antitumor activity against human DU-145 cells assessed as cell growth inhibition treated for 10 to 15 days; type: functional; conditions: time 10-15 day
NCI-N87 = assay: Antitumor activity against human NCI-N87 cells assessed as cell growth inhibition treated for 10 to 15 days; type: functional; conditions: time 10-15 day
AGS = assay: Antitumor activity against human AGS cells assessed as cell growth inhibition treated for 10 to 15 days; type: functional; conditions: time 10-15 day
SNU-16 = assay: Antitumor activity against human SNU-16 cells assessed as cell growth inhibition treated for 10 to 15 days; type: functional; conditions: time 10-15 day

For `Cc1cc(C)c(CNC(=O)c2cc(Br)c3c(c2C)O[C@@](C)([C@H]2CC[C@H](N(C)C)CC2)O3)c(=O)[nH]1`, the AUC(0-t) [1] was 1.6 µM·h, the inhibition [2] was -10% and the Activity [3] was 6.59 10^6 /uL. For the same compound, the Activity [4] was 40.1%, the Activity [5] was 4.56 10^3 /uL and the Activity [6] was 0.01 10^3 /uL. It also gave an Activity [7] of 71.8 U/L, an Activity [8] of 27.5 U/L and an Activity [9] of 137 U/L. It also gave an Activity [10] of 216 mg/dL and an Activity [11] of 4.2 mEq/L.
`Cc1cc(C)c(CNC(=O)c2cc(Cl)c3c(c2C)O[C@@](C)([C@H]2CC[C@H](N(C)C)CC2)O3)c(=O)[nH]1` [VALEMETOSTAT] showed a GI50 (CEM/C2) of over 1000 nM, a GI50 (MOLT-4) of 120 nM and a GI50 (BT-20) of over 1000 nM. It also gave an IC50 [12] of 100000 nM, a GI50 (HL-60) of over 1000 nM and a GI50 (NB-4) of over 1000 nM. For the same compound, the GI50 (KCL-22) was 138 nM, the GI50 (K562) was 788 nM and the GI50 (Pfeiffer) was 0.107 nM. The GI50 (SU-DHL-6) was 0.68 nM, the GI50 (KARPAS-422) was 1.56 nM and the GI50 (Toledo) was over 1000 nM. The GI50 (Z-138) was 19.1 nM, the GI50 (MC-CAR) was 31.3 nM and the GI50 [13] was over 1000 nM. It also gave a GI50 (SK-ES1) of over 1000 nM, a GI50 (CAMA-1) of 6.56 nM and a GI50 [14] of over 1000 nM. The GI50 (MDA-MB-157) was over 1000 nM, the GI50 (UACC-893) was over 1000 nM and the GI50 (LS180) was 95.5 nM. It also gave a GI50 (RKO) of over 1000 nM, a GI50 (ACHN) of over 1000 nM and a GI50 (SBC-5) of 22 nM. For the same compound, the GI50 [15] was 317 nM, the GI50 (Caov-3 cell line) was over 1000 nM and the GI50 [16] was over 1000 nM. It also gave a GI50 [17] of over 1000 nM, a GI50 [18] of over 1000 nM and a GI50 (Hs 766) of over 1000 nM. The GI50 (DU-145) was over 1000 nM, the GI50 (NCI-N87) was 536 nM and the GI50 (AGS) was over 1000 nM. It also gave a GI50 (SNU-16) of over 1000 nM.
